Experimental findings from ChEMBL document CHEMBL4359816, “Discovery and Optimization of Quinolinone Derivatives as Potent, Selective, and Orally Bioavailable Mutant Isocitrate Dehydrogenase 1 (mIDH1) Inhibitors” (J Med Chem, 2019) are described below.

The nature of data set [1]: Metabolic stability in human liver microsomes assessed as compound remaining after 30 mins. Type of data set: ADME, Microsome. As to conditions: read-out: Stability.
Data set [2] can be described thus: Metabolic stability in mouse liver microsomes assessed as compound remaining after 30 mins. The format is ADME, Microsome. As to conditions: read-out: Stability.
Data set [3] can be described thus: Kinetic solubility of the compound. Type of data set: physicochemical. As to conditions: read-out: Kinetic_solubility.
Data set [4] concerns the target T1, Isocitrate dehydrogenase [NADP] cytoplasmic (Homo sapiens, UniProt O75874, R132C). In words: Inhibition of human Myc-DDK-tagged IDH1 R132C mutant assessed as reduction in NADPH consumption pre-incubated for 15 mins followed by alpha-ketoglutarate substrate and NADPH addition after 45 mins by diaphorase and resazurin dye based assay.
Data set [5] addresses T1, Isocitrate dehydrogenase [NADP] cytoplasmic. In words: Inhibition of IDH1 R132C mutant in human HCT116 cells assessed as reduction in 2-HG levels after 24 hrs by RapidFire high-throughput mass spectrometry assay. Type of data set: cell-based.
Data set [6] in a line: Metabolic stability in rat liver microsomes assessed as compound remaining after 30 mins. The format is ADME, Microsome. The note with it: read-out: Stability.

Converted amounts (≈) assume the structure as drawn.

T1 sequence (O75874 2-414 R132C limits assumed): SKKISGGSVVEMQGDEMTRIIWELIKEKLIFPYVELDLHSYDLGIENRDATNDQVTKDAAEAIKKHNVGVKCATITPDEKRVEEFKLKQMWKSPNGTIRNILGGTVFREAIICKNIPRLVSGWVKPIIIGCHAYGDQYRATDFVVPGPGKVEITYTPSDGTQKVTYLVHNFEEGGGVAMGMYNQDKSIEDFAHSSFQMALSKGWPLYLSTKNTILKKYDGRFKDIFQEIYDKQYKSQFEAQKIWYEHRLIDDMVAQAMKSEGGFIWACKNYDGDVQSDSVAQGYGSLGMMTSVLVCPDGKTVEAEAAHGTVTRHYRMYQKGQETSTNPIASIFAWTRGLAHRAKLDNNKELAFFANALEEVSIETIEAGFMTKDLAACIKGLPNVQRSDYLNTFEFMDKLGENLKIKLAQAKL

Take `COc1cc(NCc2cc3cc(C)ccc3[nH]c2=O)ccc1C#N`: the values for the remaining at 0.5 h in data set [1] and in data set [2] were 1.2% and 0.49%, respectively. Further, in data set [3], the solubility kinetic amounted to 1.33 µM (≈ 0.425 µg/mL).
In the case of `COc1cc(NCc2cc3cc(Cl)c(OCCN(C)C)cc3[nH]c2=O)ccc1C#N`, the IC50 in data set [4] worked out at 6250 nM. Also, the solubility kinetic in data set [3] turned out to be 1 µM (≈ 0.427 µg/mL).
`COc1cc(NCc2cc3cc(Cl)cc(OCCN4CCOCC4)c3[nH]c2=O)ccc1C#N`: the IC50 in data set [4] is 3710 nM. Besides, the remaining at 0.5 h was 0% in data set [1] and 2.4% in data set [2]. The solubility kinetic in data set [3] is under 0.1 µM.
As for `Cc1nc(NC(C)c2cc3cc(Cl)ccc3[nH]c2=O)ccc1C#N` (racemic), in data set [4], the half-inhibitory concentration (IC50) stood at 606 nM. Besides, the values for the remaining at 0.5 h in data set [1] and in data set [2] were 100% and 96%, respectively. For the same molecule, the solubility kinetic in data set [3] turned out to be 12.2 µM (≈ 4.13 µg/mL).
On to `COc1cc(C#N)ccc1NCc1cc2cc(Cl)ccc2[nH]c1=O`, for which the remaining at 0.5 h in data set [1] worked out at 79%; in data set [2], 2.1%. For the same molecule, the solubility kinetic in data set [3] is under 0.1 µM.
Regarding `COc1cc2[nH]c(=O)c(CNc3ccc(C#N)c(OC)c3)cc2cc1Cl`, the concentration for half-maximal inhibition (IC50) in data set [4] was found to be 667 nM. Also, the remaining at 0.5 h in data set [1] worked out at 1%; in data set [2], 94.9%. In addition, the solubility kinetic in data set [3] was under 0.1 µM.
On to `N#Cc1ccc(NCc2cc3cc(Cl)ccc3[nH]c2=O)nc1`, for which the figures for the remaining at 0.5 h in data set [1] and in data set [2] were 91% and 75%, respectively. The solubility kinetic in data set [3] was determined as 0.42 µM (≈ 0.131 µg/mL).
On the same counts, the results for `COc1cc(NCc2cc3ccccc3[nH]c2=O)ccc1-n1cnnn1` are 88%, 69.4% and 0.93 µM (≈ 0.324 µg/mL).
On the same counts, the results for `Cc1cc(NCc2cc3cc(Cl)ccc3[nH]c2=O)ccc1C#N` are 75%, 49% and under 0.1 µM.
On the same counts, the results for `N#Cc1ccc(NCc2cc3cc(Cl)ccc3[nH]c2=O)cc1` are 65%, 53% and 0.21 µM (≈ 0.065 µg/mL).
Take `O=c1[nH]c2ccc(Cl)cc2cc1CNc1ccc(-c2csnn2)cc1`: the remaining at 0.5 h in data set [1] is 82%; in data set [2] it was 57%.
Turning to `COc1cc(NCc2cc3cc(Cl)cc(OCc4ccccn4)c3[nH]c2=O)ccc1C#N`, the IC50 in data set [4] came out at 3480 nM.
`COc1nc(N[C@@H](C)c2cc3cc(Cl)c(OC(C)C)cc3[nH]c2=O)ncc1C#N`: the half-maximal inhibitory concentration (IC50) came out at 26 nM in data set [4] and 104 nM in data set [5]. The remaining at 0.5 h is 100% in data set [1] and 90% in data set [6]. Also, the solubility kinetic in data set [3] was determined as 0.43 µM (≈ 0.178 µg/mL).
Take `Cc1ccnc(NCc2cc3cc(Cl)ccc3[nH]c2=O)c1`: the remaining at 0.5 h in data set [1] worked out at 76%; in data set [2], 0.6%. The solubility kinetic in data set [3] amounted to 0.88 µM (≈ 0.264 µg/mL).
Turning to `O=c1[nH]c2ccc(Cl)cc2cc1CNc1ccc(-n2ccnc2)cc1`, the remaining at 0.5 h stood at 98% in data set [1] and 93% in data set [2]. Also, the solubility kinetic in data set [3] was 1.57 µM (≈ 0.551 µg/mL).
Consider `COc1cc(NCc2cc3cc(Cl)cc(OC)c3[nH]c2=O)ccc1C#N`, for which the concentration for half-maximal inhibition (IC50) in data set [4] was found to be 88600 nM. The remaining at 0.5 h in data set [1] is 53%; in data set [2], 3.4%. In addition, the solubility kinetic in data set [3] is under 0.1 µM.
The corresponding values for `COc1cc(NCc2cc3cc(Cl)c(OCc4cc(C)n(C)n4)cc3[nH]c2=O)ccc1C#N` are 317 nM, 32.7%, 52.7% and under 0.01 µM.
As to `COc1cc(NCc2cc3ccc(C)cc3[nH]c2=O)ccc1-n1cnnn1`, the figures for the remaining at 0.5 h in data set [1] and in data set [2] were 9.6% and 17.8%, respectively. Also, in data set [3], the solubility kinetic is under 0.01 µM.
The corresponding values for `Cc1nc(N[C@H](C)c2cc3cc(Cl)ccc3[nH]c2=O)ccc1C#N` are 100%, 89% and 8 µM (≈ 2.71 µg/mL).
On the same counts, the results for `N#Cc1ccc(NCc2cc3cc(Cl)ccc3[nH]c2=O)cc1C(F)(F)F` are 100%, 100% and under 0.1 µM.
The corresponding values for `COc1cc(NCc2cc3cc(Cl)ccc3[nH]c2=O)cc(OC)c1C#N` are 80%, 59% and under 0.1 µM.
Consider `Cc1nc(NC2(c3cc4cc(Cl)ccc4[nH]c3=O)CC2)ccc1C#N`, for which the remaining at 0.5 h came out at 91% in data set [1] and 77% in data set [2]. Moreover, the solubility kinetic in data set [3] was under 0.1 µM.
With `COc1cc(NCc2cc3cc(Cl)c(OCC4CCCCN4C)cc3[nH]c2=O)ccc1C#N` (stereo not given), the 50% inhibitory concentration (IC50) in data set [4] is 1280 nM. The remaining at 0.5 h amounted to 0% in data set [1] and 10.7% in data set [2]. Also, the solubility kinetic in data set [3] was 1.35 µM (≈ 0.63 µg/mL).
For the molecule `COc1cc(NCc2cc3cc(Br)ccc3[nH]c2=O)ccc1C#N`, the remaining at 0.5 h in data set [1] stood at 89%; in data set [2] it was 39%. Besides, the solubility kinetic in data set [3] worked out at 0.18 µM (≈ 0.0692 µg/mL).
Turning to `N#Cc1ccc(NCc2cc3cc(Cl)ccc3[nH]c2=O)cc1OC(F)(F)F`, the remaining at 0.5 h in data set [1] and in data set [2] was 72% throughout. The solubility kinetic in data set [3] is under 0.1 µM.
Take `N#Cc1ccc(NCc2cc3cc(Cl)ccc3[nH]c2=O)cc1O`: the remaining at 0.5 h in data set [1] worked out at 75%; in data set [2] it was 85%. In addition, in data set [3], the solubility kinetic came out at 20.9 µM (≈ 6.81 µg/mL).
On the same counts, the results for `Cc1cc(NCc2cc3cc(Cl)ccc3[nH]c2=O)ncc1C#N` are 99%, 75% and 0.8 µM (≈ 0.26 µg/mL).
The corresponding values for `COc1cc(NCc2cc3cc(C(F)(F)F)ccc3[nH]c2=O)ccc1C#N` are 76%, 89% and under 0.1 µM.
The corresponding values for `N#Cc1ccc(NCc2cc3cc(Cl)ccc3[nH]c2=O)nc1C(F)(F)F` are 94%, 100% and under 0.1 µM.
With `CCOc1cc(NCc2cc3cc(Cl)ccc3[nH]c2=O)ccc1C#N`, the remaining at 0.5 h in data set [1] turned out to be 78%; in data set [2], 29%. In addition, the solubility kinetic in data set [3] is under 0.1 µM.
The corresponding values for `COc1cc(NCc2cc3cc(F)ccc3[nH]c2=O)ccc1C#N` are 81%, 46% and 3.32 µM (≈ 1.07 µg/mL).
Take `COc1cc(NCc2cc3cc(Cl)c(OC4CCN(C)CC4)cc3[nH]c2=O)ccc1C#N`: in data set [4], the concentration for half-maximal inhibition (IC50) was 5100 nM. Also, the values for the remaining at 0.5 h in data set [1] and in data set [2] were 4.3% and 78.8%, respectively. For the same molecule, the solubility kinetic in data set [3] turned out to be 0.41 µM (≈ 0.186 µg/mL).
Turning to `COc1ccc2[nH]c(=O)c(CNc3ccc(C#N)c(OC)c3)cc2c1`, the remaining at 0.5 h worked out at 21.6% in data set [1] and 10.5% in data set [2]. Further, in data set [3], the solubility kinetic was 0.67 µM (≈ 0.225 µg/mL).
The corresponding values for `COc1cc(NCc2cc3cc(C)c(C)cc3[nH]c2=O)ccc1-n1cnnn1` are 17.6%, 27.9% and 0.04 µM (≈ 0.0151 µg/mL).
The corresponding values for `Cc1nnnn1-c1ccc(NCc2cc3cc(Cl)ccc3[nH]c2=O)cc1` are 100%, 85% and 1.2 µM (≈ 0.44 µg/mL).
For the molecule `COc1cc(NCc2cc3cc(Cl)c(OCCN4CCOCC4)cc3[nH]c2=O)ccc1C#N`, in data set [4], the IC50 was found to be 932 nM. Further, the remaining at 0.5 h in data set [1] was 1.1%; in data set [2], 13.1%. Further, the solubility kinetic in data set [3] came to 0.385 µM (≈ 0.181 µg/mL).
`COc1cc(NCc2cc3cc(C)ccc3[nH]c2=O)ccc1-n1cnnn1`: the remaining at 0.5 h in data set [1] stood at 30.8%; in data set [2], 42.3%. For the same molecule, the solubility kinetic in data set [3] is under 0.01 µM.
On to `COc1cc(NCc2cc3cc(Cl)c(OC[C@@H]4CCCN4C)cc3[nH]c2=O)ccc1C#N`, for which the IC50 in data set [4] was found to be 5870 nM. Further, the remaining at 0.5 h in data set [1] amounted to 6.3%; in data set [2], 48.8%. In addition, in data set [3], the solubility kinetic came out at 0.72 µM (≈ 0.326 µg/mL).
Turning to `COc1cc(NCc2cc3cc(Cl)c(OCc4ccccn4)cc3[nH]c2=O)ccc1C#N`, the half-maximal inhibitory concentration (IC50) in data set [4] amounted to 225 nM. In addition, the remaining at 0.5 h was found to be 30% in data set [1] and 73.4% in data set [2]. Also, in data set [3], the solubility kinetic was under 0.1 µM.
The corresponding values for `COc1cc(NCc2cc3cc(Cl)c(OCCN4CCCC4=O)cc3[nH]c2=O)ccc1C#N` are 2670 nM, 2.5%, 14.3% and 0.53 µM (≈ 0.247 µg/mL).
On to `COc1cc(NCc2cc3cc(Cl)ccc3[nH]c2=O)ccc1-n1cnnn1`, for which the results for the remaining at 0.5 h in data set [1] and in data set [2] were 93.9% and 89.9%, respectively. Also, the solubility kinetic in data set [3] is under 0.01 µM.
Take `COc1cc(NCc2cc3cc(Cl)ccc3n(C)c2=O)ccc1-n1cnnn1`: the remaining at 0.5 h in data set [1] was found to be 63.7%; in data set [2] it was 22%. Also, the solubility kinetic in data set [3] is under 0.01 µM.
On the same counts, the results for `COc1cc(NCc2cc3cc(C(C)(C)C)ccc3[nH]c2=O)ccc1C#N` are 6%, 3.9% and under 0.1 µM.
On the same counts, the results for `N#Cc1ccc(NCc2cc3cc(Cl)ccc3[nH]c2=O)cc1F` are 100%, 49% and under 0.1 µM.
With `COc1cc(NCc2cc3ccccc3[nH]c2=O)ccc1C#N`, the values for the remaining at 0.5 h in data set [1] and in data set [2] were 35% and 4.6%, respectively. For the same molecule, the solubility kinetic in data set [3] was 6.13 µM (≈ 1.87 µg/mL).
On the same counts, the results for `COc1cc(NCc2cc3cc(Cl)ccc3[nH]c2=O)ccc1S(C)(=O)=O` are 100%, 81% and 32.5 µM (≈ 12.8 µg/mL).
The corresponding values for `Cc1nc(NC(C)(C)c2cc3cc(Cl)ccc3[nH]c2=O)ccc1C#N` are 81%, 67% and under 0.1 µM.
